Residues, ends and D or L forms follow the SMILES beside them.
Tests used:
DU145 cancer cell = type: cell-based, human; conditions: for Blocking Efficiency (%): DU-145 cancer cells
Experimental: (§1) Ninety-six-well plates were coated with 100 ng of PD-L1 protein (G&P Biosciences, human PD-L1 ECD, cat #FCL0784B. mouse PD-L1, cat #FCL3502B) and later blocked with 2% BSA for 2 hours at room temperature. Various concentrations of peptides were loaded into the wells and incubated for 1 hour at room temperature. […] Streptavidin-HRP (R & D systems) and chromogenic substrate were added into the wells. OD450 was then recorded and referenced to OD540.
The blocking efficiency of the anti-PD-L1 peptides at 10 μM (FIG. 2c). […] The IC50 of each peptide was also determined using recombinant human PD-L1 protein and DU-145 cancer cells.

hPD-L1 = hPD-L1 (Homo sapiens, UniProt Q9NZQ7); assay: Blockade of the PD-1/PD-L1 interaction, plate coated with human PD-L1 protein; type: binding; parameters: PD-L1 protein (G&P Biosciences, human PD-L1 ECD, cat #FCL0784B); purchased G&P Biosciences FCL0784B (PD-L1)
Experimental: as §1

[1] = biological target: T1, recombinant human PD-L1 ECD protein (Homo sapiens, UniProt Q9NZQ7); assay: SPR binding kinetics and affinity to immobilized human PD-L1; conditions: for kon: read-out: Ka
T1 construct: against the recombinant human PD-L1 ECD protein were evaluated using SPR; purchased G&P Biosciences FCL0784B
Experimental: In such aspects, the equilibrium dissociate constant KD value against recombinant human PD-L1 can be determined according to an KD to PD-L1 SPR Assay. The KD to PD-L1 SPR Assay can include the use of Surface Plasmon Resonance (SPR), such as the B14500, Biosensing Instrument, and can include the following procedures. The PD-L1 protein can be diluted to 10 μg/mL with sodium acetate buffer (pH 5.0, GE Healthcare, PA) and covalently coated onto a CM5 sensor chip (CM Dextran Sensor Chip, Biosensing Instrument) using the standard Amine Coupling Kit (GE Healthcare, PA). Approximately 6500 RU of PD-L1 protein are immobilized onto the chip. A second channel is used as a reference. HBS-EP+ buffer (GE Healthcare) can be employed at a flow rate of 60 μL/min. A series of concentrations of each peptide (15, 30, 60, 125, 250, 500, 1000, 5000 and 10,000 nM) is prepared in HBS-EP+ running buffer to obtain the equilibrium dissociation constant (KD) values of the peptides. The CM5 sensor chip can be regenerated with 10 mM NaOH for 20 s. The results can be analyzed using the software of Bi data analysis software.
Evaluation of Binding Kinetics and Affinity By Surface Plasmon Resonance (SPR). Binding affinities of the PD-L1 specific peptides for human PD-L1 protein were determined by SPR (B14500, Biosensing Instrument). PD-L1 protein was diluted to 10 μg/mL with sodium acetate buffer (pH 5.0, GE Healthcare, PA) and covalently coated onto a CM5 sensor chip (CM Dextran Sensor Chip, Biosensing Instrument) using the standard Amine Coupling Kit (GE Healthcare, PA). Approximately 6500 RU of PD-L1 protein were immobilized onto the chip. A second channel was used as a reference. HBS-EP+ buffer (GE Healthcare) was employed at a flow rate of 60 μL/min. A series of concentrations of each peptide (15, 30, 60, 125, 250, 500, 1000, 5000 and 10,000 nM) were prepared in HBS-EP+ running buffer to obtain the equilibrium dissociation constant (KD) values of the peptides. The CM5 sensor chip was regenerated with 10 mM NaOH for 20 seconds. The results were analyzed using the software of Bi data analysis software. Binding affinities of the anti-PD-L1 peptides to BSA was also assessed following the procedure for human PD-L1.

[2] = biological target: human PD-L1/CD80 interaction (Homo sapiens, UniProt Q9NZQ7); assay: Blockade of the CD80/PD-L1 interaction; type: binding; conditions: at 10 μM, FIG. 8a
mPD-L1 = mPD-L1 (Mus musculus, UniProt Q9EP73); assay: Blockade of the mouse PD-1/PD-L1 interaction, mouse PD-L1 protein; type: binding; parameters: purchased G&P Biosciences FCL3502B (PD-L1); conditions: mouse PD-L1 protein
Experimental: as §1

[3] = test system: Jurkat T cells co-cultured with DU-145 cancer cells; assay: Jurkat T cell proliferation in co-culture with DU-145 cells (CellTiter-Glo); type: cell-based, human; conditions: peptide 5 μM, 24 hours
Experimental: Proliferation and Apoptosis Assays. […] Briefly, 3×10^4 Jurkat T cells were cultured alone or co-cultured with 1.5×10^5 DU-145 cancer cells in a 24-well plate for the proliferation assay. For the apoptosis assay, 6×10^4 Jurkat T cells were cultured alone or co-cultured with 3×10^5 DU-145 cancer cells in a 6-well plate. After incubation with the anti-PD-L1 peptides (5 μM) or anti-PD-L1 antibody (1 μM) for 24 hours, Jurkat T cells were harvested from the supernatant. Proliferation of Jurkat cells was determined using the CellTiter-Glo luminescent cell viability assay (Promega, WI), and apoptosis of the cells were determined using the Dead Cell Apoptosis Kit with Annexin V Alexa Fluor® 488 and Propidium Iodide (Thermo-Fisher Scientific, Pittsburgh, PA) as we described before^21.

4T1 cancer cell = type: cell-based, mouse; conditions: for Blocking Efficiency (%): 4T1 cancer cell; for IC50: 2 h
[4] = test system: IFNγ, PD-L1 and IL-6 in CT26 tumors; assay: ELISA of IFNγ, PD-L1 and IL-6 in harvested CT26 tumors; type: in vivo, mouse
Excerpt: (§2) Animal Study. The animal protocol was approved by the University of Missouri-Kansas City, Institutional Animal Care and Use Committee (IACUC). Five-week old male and female Balb/c mice were purchased from Charles Rivers Laboratories (Wilmington, Mass.) and housed in a temperature and humidity controlled room on a 12-hour light-dark cycle. Approximately 5×10^5 CT26 cells were subcutaneously injected into the right flank. The mice were randomly divided into five different groups (10 mice/group, 50% female, 50% male). The mice were intraperitoneally injected with 2 mg/kg peptide daily when the tumor size reached 50-100 mm^3. The anti-mouse PD-L1 antibody (10F.9G2, BioXcell) was administrated as a positive control at a dose of 10 mg/kg every two days. The tumor size was assessed with a caliper and calculated with the formula 0.5×length×width^2. ELISA kits of PD-L1 (Cat #DY1019-05), IFNγ (Cat #DY485-05), and IL-6 (Cat #DY406-05) were used to measure the expressions of PD-L1, IFNγ, and IL-6, respectively, in tumors as per the company's instructions (R & D Systems, Minneapolis, MN).

[5] = test system: CD8+ T cells in CT26 tumor tissues; assay: IHC staining of CD8+ T cells in CT26 tumor tissues; type: in vivo, mouse
Experimental: Immunohistochemistry (IHC) Staining. Tumor tissues were fixed in 10% formalin, embedded in paraffin, sectioned, and mounted on glass slides by Truman Medical Centers Anatomic Pathology Core (Kansas City, MO). The slides were heated in Tris buffer (pH 9.0) for 45 min to recover antigen. After deparaffinization and rehydration, the sections were stained with the anti-mouse CD8 alpha antibody (Abcam, ab209775) overnight at 4° C. The slides were incubated with a biotinylated goat anti-rabbit secondary antibody, followed by the DAB chromogen mixture. Four sections (2 male and 2 female) were imaged in each group. For each section, 3 regions were randomly selected for imaging.

[6] = test system: CT26 colorectal tumor-bearing mouse model; assay: Anti-tumor activity in CT26 tumor-bearing Balb/C mice; type: in vivo
Excerpt: as §2
The anti-mouse PD-L1 antibody (BioXcell, 10F.9G2) was administered intraperitoneally every other day at 10 mg/kg. […] In general, CLP002 (SEQ ID NO:2) exerted a better tumor inhibitory effect than CLP003 (SEQ ID NO:3), which was similar to the antibody. […] In FIG. 6e the weight of the tumors harvested at day 14 is shown. The results were represented as the mean±SD (n=10). It is noteworthy that the peptides were screened against the human PD-L1 protein, which, in fact, would compromise the anti-tumor activity of the peptides in a mouse model.

[7] = test system: CT26 tumor-bearing Balb/C mice; assay: Survival of CT26 tumor-bearing Balb/C mice; type: in vivo, mouse
Excerpt: as §2
In this Example, mice were intraperitoneally injected with the CLP002 (SEQ ID NO:2) and CLP003 (SEQ ID NO:3) peptides daily or the anti-mouse PD-L1 antibody every other day from day 4 to day 17 (see survival curves in FIG. 7a). Specifically, CT26 tumor-bearing Balb/C mice (n=10, 5 male and 5 female) were intraperitoneally injected with the anti-PD-L1 peptides (2 mg/Kg) daily and the anti-mouse PD-L1 antibody (10 mg/Kg) every other day from day 4 to day 17. GraphPad Prism 7 software (San Diego, Calif.) was used for statistical analysis. Comparison of two survival curves were conducted using the Gehan-Breslow-Wilcoxon test. […] By contrast, only 20% of the mice in the CLP002 (SEQ ID NO:2) group were dead by day 17.

T1 sequence (Q9NZQ7 19-238 limits assumed): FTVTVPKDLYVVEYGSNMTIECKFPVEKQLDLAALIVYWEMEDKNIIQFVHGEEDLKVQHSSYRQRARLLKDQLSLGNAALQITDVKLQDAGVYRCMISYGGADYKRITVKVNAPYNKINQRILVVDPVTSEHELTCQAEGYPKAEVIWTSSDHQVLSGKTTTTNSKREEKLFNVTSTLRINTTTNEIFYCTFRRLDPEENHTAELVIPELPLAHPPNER
Sequence of hPD-L1 (Q9NZQ7 19-238 limits assumed): as above
Sequence of human PD-L1/CD80 interaction (Q9NZQ7 19-238 limits assumed): as above
Sequence of mPD-L1 (Q9EP73 19-239 limits assumed): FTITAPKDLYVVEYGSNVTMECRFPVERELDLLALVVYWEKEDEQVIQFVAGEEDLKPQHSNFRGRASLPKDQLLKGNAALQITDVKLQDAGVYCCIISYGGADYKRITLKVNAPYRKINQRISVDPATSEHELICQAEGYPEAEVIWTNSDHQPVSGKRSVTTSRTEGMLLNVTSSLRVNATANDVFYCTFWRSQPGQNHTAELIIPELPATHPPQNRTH

C[C@H](NC(=O)[C@H](CCC(N)=O)NC(=O)[C@H](CC(N)=O)NC(=O)[C@H](C)NC(=O)[C@H](Cc1c[nH]cn1)NC(=O)[C@@H]1CCCN1C(=O)[C@H](CCCNC(=N)N)NC(=O)[C@H](Cc1ccccc1)NC(=O)[C@@H]1CCCN1C(=O)[C@H](Cc1ccc(O)cc1)NC(=O)[C@@H](N)Cc1c[nH]cn1)C(=O)N[C@@H](CO)C(=O)O [CLP001] (H-HYPFRPHANQAS-OH; N-terminus and C-terminus assumed)
Blocking Efficiency (%) (DU145 cancer cell): 0% | Blocking Efficiency (%) (hPD-L1; human PD-L1 protein): 0% | Blocking of the human PD-1/PD-L1 interaction (in words) (hPD-L1; peptides at 10 μM, FIG. 2c): did not block | kon [1]: 5190 M⁻¹ s⁻¹ | Blocking efficiency against CD80/PD-L1 interaction [2]: approximately 17% | Blocking Efficiency (%) (mPD-L1): 34% | Effect on Jurkat T cell proliferation [3]: did not observe the same effect | Blocking Efficiency (%) (4T1 cancer cell): 35% | IC50 (4T1 cancer cell): 0.91 µM

CC(C)C[C@H](NC(=O)[C@H](Cc1c[nH]c2ccccc12)NC(=O)[C@H](CCCNC(=N)N)NC(=O)[C@H](Cc1c[nH]c2ccccc12)NC(=O)[C@H](CC(N)=O)NC(=O)[C@H](Cc1ccc(O)cc1)NC(=O)[C@H](CO)NC(=O)[C@H](Cc1ccccc1)NC(=O)[C@H](Cc1c[nH]cn1)NC(=O)[C@@H](N)Cc1c[nH]c2ccccc12)C(=O)N1CCC[C@H]1C(=O)N1CCC[C@H]1C(=O)O [CLP003] (H-WHFSYNWRWLPP-OH; N-terminus and C-terminus assumed)
IL-6 expression in tumor tissues [4]: decreased expression of IL-6 | IC50 (DU145 cancer cell; 2 h): 3.05 µM | Blocking Efficiency (%) (DU145 cancer cell): 56% | IC50 (hPD-L1; plate coated with human PD-L1 protein): 2.22 µM | Kd [1]: 0.117 µM | kon [1]: 22600 M⁻¹ s⁻¹ | Density of CD8+ T cells in tumor tissues [5]: significantly increased | Tumor growth ([6]; peptides 2 mg/kg i.p. daily, antibody 10 mg/kg i.p. every other day): effectively suppressed tumor growth | Tumor weights at day 14 ([6]; versus saline group): significantly smaller than the saline group | Tumor growth in the survival study ([7]; Example 7, individual growth curves): other mice experienced a rapid tumor progression | Mice died on day 17 (in words) ([7]; n=10): only one mouse died on day 17 | Survival of tumor-bearing mice ([7]; treatment from day 4 to day 17): modestly improved the survival | Blocking Efficiency (%) (4T1 cancer cell): 50% | IC50 (4T1 cancer cell): 1 µM

Source: US12258424B2, “Polypeptides and compositions comprising the same” (priority 2020, dated 2025)
